Laboratory results published in patent US7557212B2, “Tricyclic derivatives as LTD4 antagonists” (Laboratorios Almirall, S.A., priority 2002, dated 2009).
Like-named read-outs stand apart in the source and are kept apart here.

Columns and labels:
[1] = tested on: LTD4-induced airway microvascular leakage; test: LTD4-induced microvascular permeability in guinea-pigs (Evans blue extravasation in trachea); format: in vivo, guinea pig; settings: oral gavage 4 hours before, LTD4 1 μg/kg i.v., male Dunkin-Hartley guinea pigs
Method: LTD4-Induced Microvascular Permeability in Guinea-Pigs
Male Dunkin-Hartey guinea pigs (450-500 g) fasted for 18 hours were administered the test compounds by oral gavage 4 hours before being anesthetized with urethane (15%, i.p. 10 ml/kg). The left jugular vein was canulated under anaesthesia. Five minutes afterwards, Evans blue dye (40 mg/Kg) was injected intravenously. After five more minutes, LTD4 was administered (1 μg/kg, i.v.) to the animals in order to induce airway microvascular leakage. After yet another period of 5 minutes, animals were exsanguinated by cutting the right atria and the vascular bed was rinsed by perfusing 50 ml of saline solution through the left ventricle at a pressure of 150 cmH2O. Then the trachea was excised and incubated in formamide for 20 hours at 55° C. to extract the Evans blue dye from the tissue. Microvascular permeability was determined by light spectrophotometry at 620 nm of the extravasated dye.

CysLT1 = target: T1, CysLT1 (Cavia porcellus, UniProt Q2NNR5); test: CysLT1/LTD4 radioligand binding assay ([3H]LTD4, guinea-pig lung membrane preparation); settings: 300 pM [3H]LTD4, guinea-pig lung membranes, 30 minutes at room temperature
T1 construct: The assay mixture also contained 200 μg of lung membrane protein/plate well; from tissue; host or cells: guinea-pig lung (primarily parenchyma) membrane preparation
T1 sequence (Q2NNR5 1-340): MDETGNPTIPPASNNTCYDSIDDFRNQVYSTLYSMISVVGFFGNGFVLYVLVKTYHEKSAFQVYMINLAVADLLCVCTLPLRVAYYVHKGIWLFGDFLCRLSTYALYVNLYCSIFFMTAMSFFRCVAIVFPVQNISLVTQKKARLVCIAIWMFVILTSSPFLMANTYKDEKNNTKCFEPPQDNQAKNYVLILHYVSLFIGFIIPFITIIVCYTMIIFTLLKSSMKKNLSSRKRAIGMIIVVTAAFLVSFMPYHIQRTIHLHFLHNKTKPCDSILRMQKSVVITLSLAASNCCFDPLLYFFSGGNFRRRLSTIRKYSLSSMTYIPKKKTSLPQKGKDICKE
Method: CysLT1/LTD4 Binding Protocol (Guinea-Pig Lung Membrane Preparation)
Guinea pigs were sacrificed and lung tissues removed. Connective tissue, trachea, large blood vessels and major airways were removed and the remaining tissue, primarily parenchyma, was homogenised in 20 volumes of 10 mM TRIS pH 7.4 containing 0.25M sucrose, 0.25 mM phenylmethylsulfonyl fluoride, 155 μg/ml benzenecarboximide, 5 μg/ml soybean trypsin inhibitor and 100 μg/ml bacitracin (Work Buffer), in a ULTRA-TURRAX T25 at 13500 rpm. The homogenate was centrifuged at 1000×g for 10 minutes at 4° C. The resulting supernatant was filtered through a sterile cloth and further centrifuged for 15 minutes at 40000×g at 4° C. The pellet obtained was resuspended in 10 volumes of Work Buffer, homogenised using a Potter (1100 rpm) and subjected to a final centrifugation step for 30 minutes at 40000×g at 4° C. This membrane pellet was finally resuspended in 10 volumes of 10 mM TRIS and 10 mM PIPES pH 7.4, and homogenised using a Potter (1100 rpm). Protein concentration was determined by the BRADFORD method using the Bio-Rad Protein Assay kit with BSA as standard. Protein aliquots were kept frozen at −80° C.
Radioligand Binding Assay
[^3H]LTD4 (136.9 Ci/mmol) was obtained from NEN.
The assays were performed in a final volume of 250 μl of 10 mM PIPES pH 7.5 containing 10 mM CaCl2, 10 mM MgCl2, 50 mM NaCl, 2 mM L-Cysteine, 2 mM Glycine and 300 pM [^3H]LTD4. The assay mixture also contained 200 μg of lung membrane protein/plate well. Non-specific binding was determined in the presence of zafirlukast 10 μM.
The assays were performed directly on Millipore Multiscreen GF/B plates, presoaked with 200 μl/well of assay buffer at room temperature. Incubations were conducted for 30 minutes at room temperature with continuous shaking. Separation of bound and free [^3H]LTD4 was done by filtration through the plates that were then washed three times with 175 μl/wash of 10 mM TRIS containing 100 mM NaCl at 4° C. The plates were dried and counted in a TRILUX Microbeta Liquid Scintillation Counter of Wallac.

[2] = Cavia porcellus, read-out: ED50

| SMILES | ED50 [1, 2] | IC50 (CysLT1) | ED50 [1] |
| --- | --- | --- | --- |
| O=C(O)CCSC1c2cc(OCc3ccc4cc(F)c(F)cc4n3)ccc2OCc2ncccc21 (single isomer, unassigned; (+)) [Example 34, (+)-3-[7-(6,7-Difluoro-quinolin-2-ylmethoxy)-5,11-dihydro-10-oxa-1-aza-dibenzo[a,d]cyclohepten-5-ylsulfanyl]-propionic Acid] | 0.018 mg/kg | 1.2 nM | – |
| O=C(O)CCSC1c2cc(OCc3ccc4cc(F)c(Cl)cc4n3)ccc2CCc2ncccc21 (single isomer, unassigned; (+)) [Example 43, (+) 3-[7-(7-Chloro-6-fluoro-quinolin-2-ylmethoxy)-10,11-dihydro-5H-benzo[4,5]cyclohepta[1,2-b]pyridin-5-ylsulfanyl]-propionic Acid] | – | 3.4 nM | – |
| O=C(O)CCSC1c2cc(OCc3ccc4cc(F)c(F)cc4n3)ccc2OCc2ncccc21 (single isomer, unassigned; (-)) [Example 35, (−)-3-[7-(6,7-Difluoro-quinolin-2-ylmethoxy)-5,11-dihydro-10-oxa-1-aza-dibenzo[a,d]cyclohepten-5-ylsulfanyl]-propionic Acid] | – | 0.35 nM | 0.009 mg/kg |
| O=C(O)CCSC1c2ccccc2COc2ccc(OCc3ccc4cc(F)c(Cl)cc4n3)cc21 (stereo not drawn) [Compound A, reference compound] | – | 0.51 nM | 0.010 mg/kg |
| CC(C)(O)c1ccccc1CC[C@@H](SCC1(CC(=O)O)CC1)c1cccc(/C=C/c2ccc3ccc(Cl)cc3n2)c1 [Compound B, reference compound] | 0.008 mg/kg | – | – |
| O=C(O)CCSC1c2cc(OCc3ccc4cc(F)c(F)cc4n3)ccc2OCc2ncccc21 (stereo not drawn) [Example 1, 3-{(7-[(6,7-difluoroquinolin-2-yl)methoxy]-5,11-dihydro[1]benzoxepino[3,4-b]pyridin-5-yl)thio}propanoic Acid] | 0.009 mg/kg | 0.38 nM | – |
| O=C(O)CSC1c2cc(OCc3ccc4cc(F)c(Cl)cc4n3)ccc2OCc2ncccc21 (stereo not drawn) [Example 3, {(7-[(7-chloro,6-fluoro-quinolin-2-yl)methoxy]-5,11-dihydro[1]benzoxepino[3,4-b]pyrindin-5-yl)thio}acetic Acid] | – | 0.27 nM | – |
| O=C(O)CCSC1c2cc(OCc3ccc4cc(F)c(Cl)cc4n3)ccc2OCc2ncccc21 (stereo not drawn) [Example 4, 3-{(7-[(7-chloro,6-fluoro-quinolin-2-yl)methoxy]-5,11-dihydro[1]benzoxepino[3,4-b]pyrindin-5-yl)thio}propanoic Acid] | 0.03 mg/kg | 0.28 nM | – |
| O=C(O)CC1(CSC2c3cc(OCc4ccc5cc(F)c(F)cc5n4)ccc3OCc3ncccc32)CC1 (stereo not drawn) [Example 7, 1-{[(7-[(6,7-difluoroquinolin-2-yl)methoxy]-5,11-dihydro[1]benzoxepino[3,4-b]pyrindin-5-yl)thio]methyl}cyclopropyl Acetic Acid] | 0.013 mg/kg | 0.14 nM | – |
| CC(C)(CSC1c2cc(OCc3ccc4cc(F)c(F)cc4n3)ccc2OCc2ncccc21)C(=O)O (stereo not drawn) [Example 8, 3-{(7-[(6,7-difluoroquinolin-2-yl)methoxy]-5,11-dihydro[1]benzoxepino[3,4-b]pyrindin-5-yl)thio}-2,2-dimethylpropanoic Acid] | – | 0.5 nM | – |
| CC(C)(CC(=O)O)SC1c2cc(OCc3ccc4cc(F)c(F)cc4n3)ccc2OCc2ncccc21 (stereo not drawn) [Example 9, 3-{(7-[(6,7-difluoroquinolin-2-yl)methoxy]-5,11-dihydro[1]benzoxepino[3,4-b]pyrindin-5-yl)thio}-3methylbutanoic Acid] | 0.018 mg/kg | 0.59 nM | – |
| O=C(O)CC1(CSC2c3cc(/C=C/c4ccc5cc(F)c(F)cc5n4)ccc3OCc3ncccc32)CC1 (stereo not drawn) [Example 11, 1-{[(7-[(E)-2-(6,7-difluoroquinolin-2-yl)vinyl]-5,11-dihydro[1]benzoxepino[3,4-b]pyrindin-5-yl)thio]methyl}cyclopropyl Acetic] | 0.0013 mg/kg | 0.27 nM | – |
| O=C(O)CSC1c2cc(/C=C/c3ccc4cc(F)c(F)cc4n3)ccc2OCc2ncccc21 (stereo not drawn) [Example 12, {(7-[(E)-2-(6,7-difluoroquinolin-2-yl)vinyl]-5,11-dihydro[1]benzoxepino[3,4-b]pyrindin-5-yl)thio}acetic Acid] | – | 0.35 nM | – |
| O=C(O)CC1(CSC2c3cc(OCc4ccc5cc(F)c(F)cc5n4)ccc3OCc3cccnc32)CC1 (stereo not drawn) [Example 18, 1-{[(9-[(6,7-difluoroquinolin-2-yl)methoxy]-5,11-dihydro[1]benzoxepino[4,3-b]pyrindin-11-yl)thio]methyl}cyclopropyl Acetic Acid] | – | 0.33 nM | – |
| O=C(O)CCSC1c2cc(OCc3ccc4cc(F)c(Cl)cc4n3)ccc2CCc2ncccc21 (stereo not drawn) [Example 23, 3-[7-(7-Chloro-6-fluoro-quinolin-2-ylmethoxy)-10,11-dihydro-5H-benzo[4,5]cyclohepta[1,2-b]pyridin-5-ylsulfanyl]-propionic Acid] | 0.002 mg/kg | 0.34 nM | – |
| O=C(O)CCSC1c2cc(OCc3ccc4cc(F)c(F)cc4n3)ccc2CCc2ncccc21 (stereo not drawn) [Example 24, 3-[7-(6,7-difluoro-quinolin-2-ylmethoxy)-10,11-dihydro-5H-benzo[4,5]cyclohepta[1,2-b]pyridin-5-ylsulfanyl]-propionic Acid] | 0.01 mg/kg | 0.6 nM | – |
| O=C(O)CCSC1c2ccncc2CCc2ccc(OCc3ccc4cc(F)c(F)cc4n3)cc21 (stereo not drawn) [Example 25, 3-[7-(6,7-Difluoro-quinolin-2-ylmethoxy)-10,11-dihydro-5H-benzo[4,5]cyclohepta[1,2-c]pyridin-5-ylsulfanyl]-propionic Acid] | – | 0.67 nM | – |
| O=C(O)CCSC1c2cc(CCc3ccc4cc(F)c(F)cc4n3)ccc2OCc2cccnc21 (stereo not drawn) [Example 28, 3-{7-[2-(6,7-Difluoro-quinolin-2-yl)-ethyl]-5,11-dihydro-10-oxa-4-aza-dibenzo[a,d]cyclohepten-5-ylsulfanyl}-propionic Acid] | – | 2 nM | – |
| O=C(O)CCSC1c2cc(OCc3ccc4cc(F)c(F)cc4n3)ccc2C=Cc2ncccc21 (stereo not drawn) [Example 33, 3-[7-(6,7-Difluoro-quinolin-2-ylmethoxy)-5H-benzo[4,5]cyclohepta[1,2-b]pyridin-5-ylsulfanyl]-propionic Acid] | – | 0.5 nM | – |
| O=C(O)CC1(CSC2c3cc(/C=C/c4ccc5cc(F)c(F)cc5n4)ccc3C=Cc3ncccc32)CC1 (stereo not drawn) [Example 40, (1-{7-[2-(6,7-Difluoro-quinolin-2-yl)-vinyl]-5H-benzo[4,5]cyclohepta[1,2-b]pyridin-5-ylsulfanylmethyl}-cyclopropyl) Acetic Acid] | – | 0.5 nM | – |
